# According to PubChem BioAssay (NCI):
#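 Protocol summary: plate cells (96-well), add compound at 5 concentrations, incubate 48 h, interpolate endpoints linearly. TGI: total growth inhibition.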
# Columns and labels:
# Experiment in all cases: inhibition of tumour cell growth, NCI panel, 48 h
# BT-549 breast = test system: BT-549 breast
# HOP-92 NSCLC = test system: HOP-92 NSCLC
# HCT-15 colon = test system: HCT-15 colon
# OVCAR-8 ovarian = test system: OVCAR-8 ovarian
# OVCAR-5 ovarian = test system: OVCAR-5 ovarian
# MCF7 breast = test system: MCF7 breast
# SK-MEL-5 melanoma = test system: SK-MEL-5 melanoma
# SN12C renal = test system: SN12C renal
# SF-268 CNS = test system: SF-268 CNS
# PC-3 prostate = test system: PC-3 prostate
# SNB-19 CNS = test system: SNB-19 CNS
# COLO 205 colon = test system: COLO 205 colon
# MDA-MB-231 breast = test system: MDA-MB-231 breast
# NCI-H522 lung = test system: NCI-H522 lung
# HL-60(TB) leukemia = test system: HL-60(TB) leukemia
# RPMI-8226 leukemia = test system: RPMI-8226 leukemia
# UO-31 renal = test system: UO-31 renal
# RXF 393 renal = test system: RXF 393 renal
# UACC-62 melanoma = test system: UACC-62 melanoma
# SK-MEL-2 melanoma = test system: SK-MEL-2 melanoma
# T-47D breast = test system: T-47D breast
# SW-620 colon = test system: SW-620 colon
# UACC-257 melanoma = test system: UACC-257 melanoma
# K-562 leukemia = test system: K-562 leukemia
# NCI-H23 lung = test system: NCI-H23 lung
# M14 melanoma = test system: M14 melanoma
# SNB-75 CNS = test system: SNB-75 CNS
# SK-OV-3 ovarian = test system: SK-OV-3 ovarian
# CCRF-CEM leukemia = test system: CCRF-CEM leukemia
# MDA-MB-435 = test system: MDA-MB-435
# MDA-N = test system: MDA-N
# NCI-H226 lung = test system: NCI-H226 lung
# SF-295 CNS = test system: SF-295 CNS
# SK-MEL-28 melanoma = test system: SK-MEL-28 melanoma
# EKVX NSCLC = test system: EKVX NSCLC
# MALME-3M melanoma = test system: MALME-3M melanoma
# A498 renal = test system: A498 renal
# HOP-62 NSCLC = test system: HOP-62 NSCLC
# CAKI-1 renal = test system: CAKI-1 renal
# ACHN renal = test system: ACHN renal
# HS 578T breast = test system: HS 578T breast
# SF-539 CNS = test system: SF-539 CNS
# MOLT-4 leukemia = test system: MOLT-4 leukemia
# A549 NSCLC = test system: A549 NSCLC
# NCI/ADR-RES ovarian = test system: NCI/ADR-RES ovarian
# 786-0 renal = test system: 786-0 renal
# TK-10 renal = test system: TK-10 renal
# DU-145 prostate = test system: DU-145 prostate
# HT29 colon = test system: HT29 colon
# KM12 colon = test system: KM12 colon
# LOX IMVI melanoma = test system: LOX IMVI melanoma
# SR leukemia = test system: SR leukemia
# OVCAR-4 ovarian = test system: OVCAR-4 ovarian
# OVCAR-3 ovarian = test system: OVCAR-3 ovarian
# U251 CNS = test system: U251 CNS
# HCT-116 colon = test system: HCT-116 colon
# IGROV1 ovarian = test system: IGROV1 ovarian
# NCI-H460 lung = test system: NCI-H460 lung
# HCC-2998 colon = test system: HCC-2998 colon
smiles,measurement,setting,value
Brc1ccc2c3c1[C@@H]1O[C@@H]1c1cccc(c1-3)[C@@H]1O[C@H]21,TGI,BT-549 breast,43.2 µM
same,TGI,HOP-92 NSCLC,43.5 µM
same,TGI,HCT-15 colon,49.8 µM
same,TGI,OVCAR-8 ovarian,30.8 µM
same,TGI,OVCAR-5 ovarian,34.3 µM
same,TGI,MCF7 breast,> 100 µM
same,TGI,SK-MEL-5 melanoma,33.4 µM
same,TGI,SN12C renal,45.9 µM
same,TGI,SF-268 CNS,63.1 µM
same,TGI,PC-3 prostate,> 71.7 µM
same,TGI,SNB-19 CNS,60.9 µM
same,TGI,COLO 205 colon,52.2 µM
same,TGI,MDA-MB-231 breast,65.8 µM
same,TGI,NCI-H522 lung,31.4 µM
same,TGI,HL-60(TB) leukemia,66.5 µM
same,TGI,RPMI-8226 leukemia,> 100 µM
same,TGI,UO-31 renal,43.8 µM
same,TGI,RXF 393 renal,32.3 µM
same,TGI,UACC-62 melanoma,35.4 µM
same,TGI,SK-MEL-2 melanoma,> 71.5 µM
same,TGI,T-47D breast,45 µM
same,TGI,SW-620 colon,46.9 µM
same,TGI,UACC-257 melanoma,98.4 µM
same,TGI,K-562 leukemia,> 100 µM
same,TGI,NCI-H23 lung,33.7 µM
same,TGI,M14 melanoma,35.5 µM
same,TGI,SNB-75 CNS,45.2 µM
same,TGI,SK-OV-3 ovarian,> 71.2 µM
same,TGI,CCRF-CEM leukemia,> 100 µM
same,TGI,MDA-MB-435,48.3 µM
same,TGI,MDA-N,53.5 µM
same,TGI,NCI-H226 lung,> 100 µM
same,TGI,SF-295 CNS,46 µM
same,TGI,SK-MEL-28 melanoma,50.3 µM
same,TGI,EKVX NSCLC,39.4 µM
same,TGI,MALME-3M melanoma,41.6 µM
same,TGI,A498 renal,> 69.1 µM
same,TGI,HOP-62 NSCLC,43.1 µM
same,TGI,CAKI-1 renal,26.4 µM
same,TGI,ACHN renal,67.1 µM
same,TGI,HS 578T breast,80.8 µM
same,TGI,SF-539 CNS,16.5 µM
same,TGI,MOLT-4 leukemia,> 100 µM
same,TGI,A549 NSCLC,> 92.1 µM
same,TGI,NCI/ADR-RES ovarian,45.4 µM
same,TGI,786-0 renal,51.1 µM
same,TGI,TK-10 renal,> 100 µM
same,TGI,DU-145 prostate,> 72.5 µM
same,TGI,HT29 colon,53.3 µM
same,TGI,KM12 colon,36 µM
same,TGI,LOX IMVI melanoma,6.86 µM
same,TGI,SR leukemia,> 100 µM
same,TGI,OVCAR-4 ovarian,41.3 µM
same,TGI,OVCAR-3 ovarian,52.6 µM
same,TGI,U251 CNS,40.2 µM
same,TGI,HCT-116 colon,45.7 µM
O=C1CCC(NC(=O)c2ccccc2)C(=O)N1 (configuration not stated),TGI,BT-549 breast,> 100 µM
same,TGI,HOP-92 NSCLC,> 100 µM
same,TGI,HCT-15 colon,> 100 µM
same,TGI,OVCAR-8 ovarian,> 100 µM
same,TGI,OVCAR-5 ovarian,> 100 µM
same,TGI,MCF7 breast,> 100 µM
same,TGI,SK-MEL-5 melanoma,> 100 µM
same,TGI,SN12C renal,> 100 µM
same,TGI,SF-268 CNS,> 100 µM
same,TGI,PC-3 prostate,> 100 µM
same,TGI,SNB-19 CNS,> 100 µM
same,TGI,COLO 205 colon,> 100 µM
same,TGI,MDA-MB-231 breast,> 100 µM
same,TGI,NCI-H522 lung,> 100 µM
same,TGI,RPMI-8226 leukemia,> 100 µM
same,TGI,UO-31 renal,> 100 µM
same,TGI,RXF 393 renal,> 100 µM
same,TGI,UACC-62 melanoma,> 100 µM
same,TGI,SK-MEL-2 melanoma,> 100 µM
same,TGI,T-47D breast,> 100 µM
same,TGI,SW-620 colon,> 100 µM
same,TGI,UACC-257 melanoma,> 100 µM
same,TGI,NCI-H23 lung,> 100 µM
same,TGI,M14 melanoma,> 100 µM
same,TGI,SNB-75 CNS,> 100 µM
same,TGI,SK-OV-3 ovarian,> 100 µM
same,TGI,IGROV1 ovarian,> 100 µM
same,TGI,MDA-MB-435,> 100 µM
same,TGI,MDA-N,> 100 µM
same,TGI,NCI-H226 lung,> 100 µM
same,TGI,NCI-H460 lung,> 100 µM
same,TGI,SF-295 CNS,> 100 µM
same,TGI,SK-MEL-28 melanoma,> 100 µM
same,TGI,EKVX NSCLC,> 100 µM
same,TGI,MALME-3M melanoma,> 100 µM
same,TGI,A498 renal,> 100 µM
same,TGI,HOP-62 NSCLC,> 100 µM
same,TGI,CAKI-1 renal,> 100 µM
same,TGI,ACHN renal,> 100 µM
same,TGI,HS 578T breast,> 100 µM
same,TGI,SF-539 CNS,> 100 µM
same,TGI,MOLT-4 leukemia,16.9 µM
same,TGI,A549 NSCLC,> 100 µM
same,TGI,NCI/ADR-RES ovarian,> 100 µM
same,TGI,786-0 renal,> 100 µM
same,TGI,TK-10 renal,> 100 µM
same,TGI,HCC-2998 colon,> 100 µM
same,TGI,DU-145 prostate,> 100 µM
same,TGI,HT29 colon,> 100 µM
same,TGI,KM12 colon,> 100 µM
same,TGI,LOX IMVI melanoma,> 100 µM
same,TGI,SR leukemia,> 100 µM
same,TGI,OVCAR-4 ovarian,> 100 µM
same,TGI,OVCAR-3 ovarian,> 100 µM
same,TGI,U251 CNS,> 100 µM
same,TGI,HCT-116 colon,> 100 µM
